In patent US12264156B2, “Compounds and pharmaceutical compositions thereof for the treatment of diseases” (GALAPAGOS NV, priority 2018, dated 2025):

Assays:
[1] = system: IL-23 induced psoriatic-like epidermal hyperplasia; assay: Murine model of psoriatic-like epidermal hyperplasia induced by intradermal injections of IL-23; assay type: in vivo, mouse; conditions: 10 mg/kg p.o. b.i.d.
Protocol: Mouse recombinant IL-23, carrier free (Cat #14-8231) is provided by e-Bioscience (Frankfurt, Germany).
Balb/c mice (female, 18-20 g body weight) were obtained from Janvier Labs (Le Genest-Saint-Isle, France). Mice are kept on a 12 h light/dark cycle. Temperature was maintained at 22° C., food and water are provided ad libitum.
The design of the study was adapted from Rizzo H L. et al. (Rizzo et al. 2011). On the first day (D1), the mice were shaved around the two ears. For 4 consecutive days (D1 to D4), the mice received a daily intradermal dose of mouse recombinant IL-23 (1 μg/20 μL in PBS/0.1% BSA) in the right pinna ear and 20 μL of PBS/0.1% BSA in the left pinna ear under anesthesia.
From D1 to D5, mice were dosed with test-compound or with vehicle, 1 h prior IL-23 injection.
The thickness of both ears was measured daily with an automatic caliper. Body weight was assessed at initiation and at sacrifice. On fifth day, 2 h after the last dosing, the mice were sacrificed. The pinnae of the ear were cut, excluding cartilage. The pinnae, placed in a vial containing 1 mL of RNAlater® solution.
There were 8 mice per group. The results were expressed as mean±SEM and statistical analysis was performed using one-way ANOVA followed by Dunnett's post-hoc test versus IL-23 vehicle groups.

[2] = system: mouse T cell transfer model; assay: T cell transfer model (mice); assay type: in vivo; conditions: 30 mg/kg p.o. b.i.d.
Text: DynaMag (Cat #12321D and 123203D) were obtained from Life Technologies Invitrogen (California, USA); DynabeadsFlowComp Mouse CD4+CD25-treg cells (Cat #11463D) were obtained from Life Technologies Invitrogen (California, USA), Fetal Bovine Serum (GIBCO), Cat #10270-106; RPMI (Gibco) Cat #32404-014 and D-PBS 1× without CaCl2 without MgCl2 (GIBCO), Cat #14190-086 were obtained ThermoFisher Scientific (Massachusetts, USA). Red Blood Cell (RBC) lysis buffer 10×, Cat #BLE420301 obtained from Ozyme (Montigny-le-Bretonneux, France). Cell strainer (70 μm grid), Cat #352350, obtained from Corning (New York, USA). […]
Fourteen days after cell injection, 100 μL of blood was sampled on each mouse under anesthesic conditions in order to determine CD4 level. […] Disease activity index was determined twice a week. Four to six weeks after the start of treatment, mice were sacrificed, blood was sampled and the complete colon was removed and rinsed with sterile PBS, it was measured and weighed in order to determine colon weight/length ratio. […]
There were 12 mice per group. The results were expressed as mean±SEM and statistical analysis was performed using non parametric test Kruskal-Wallis with Dunn's Multiple comparison test versus vehicle groups. […]

[3] = system: mouse CAIA model; assay: Murine collagen-antibody induced arthritis model (CAIA); assay type: in vivo; conditions: 60 mg/kg p.o. b.i.d.
Protocol: ArthritoMabrm antibody cocktail for inducing arthritis and lipopolysaccharide (LPS) from Escherichia Coli serotype O55:B5 were purchased from MD Biosciences (OakdalMNnn., USA, Cat #CIA-MAB-50); PBS 1× (GIBCO, Cat #140190-086) was obtained from ThermoFisher Scientific, and Enbrel® (etanercept) was purchased from Chondrex (L'Isle d'Abeau, France, Cat #3771910).
Five to seven week old BALBc female mice were obtained from Janvier Labs (Le Genest-Saint-Isle, France). Mice were kept on a 12 h light/dark cycle. Temperature was maintained at 22° C., food and water were provided ad libitum.
The therapeutic effects of the compounds of the invention were tested in the mouse CAIA model (MD Biosciences 2008; Nandakumar et al. 2003). At day 1 (D1), mice were randomly divided into equal groups containing 10 mice. […] Bodyweight and clinical score of each mouse was assessed every day except the weekend until the end of the study. […] For histology readouts, right and left hind paws were individually collected in vials (25 mL minimum) filled with 4% buffered formaldehyde for a minimum of 24 h to a maximum of 4 days at RT.
Arthritis was scored according to the method of Khachigian 2006; Lin et al 2007 and Nishida et al. 2004 (Khachigian 2006; Lin et al. 2007; Nishida et al. 2004). […]

COc1cc(-c2cnc3cc(OCCN4CCOCC4)ccn23)cc2c1C(=O)N(CC(F)(F)F)CC2 [Cpd 88, 8-methoxy-6-[7-(2-morpholinoethoxy)imidazo [1,2-a]pyridin-3-yl]-2-(2,2,2-trifluoroethyl)-3,4-dihydroisoquinolin-1-one]
ear thickness compared to IL-23 vehicle group [1]: statistically significant decrease of the ear thickness
AUC of DAI vs. vehicle group [2]: statistical significant reduction of AUC of DAI
Area Under the Curve (AUC) of clinical score vs. vehicle group [3]: statistically significant reduction of Area Under the Curve (AUC) of clinical score
